Results as given in patent US8951527B2, “Radioprotectants targeting thrombospondin-1 and CD47” (The United States of America, as represented by the …, priority 2008, dated 2015).
Entries after “also recorded” stand apart in the source; their conditions may differ.

Key:
Format in all cases: in vivo, mouse
[1] = system: SCC VII; assay: SCC VII squamous cell carcinoma tumor growth after irradiation in C3H mice; conditions: IP morpholino 48 hours before irradiation
Protocol: FIG. 19. CD47 suppression enhances re-growth delay in irradiated syngeneic B16 melanoma and squamous cell carcinoma tumors but increases radioresistance of B16 cells in vitro. C57BL/6 mice were injected with 1×10^6 B16 mouse melanoma cells into their right hindlimbs. Five days later, the mice were randomized into 4 groups (12 mice in each group) where they either received injections of CD47 morpholino (10 μM) in sterile PBS, PBS, or no injection. The two groups receiving injections were then subjected to radiation (10 Gy) to the effected hindlimb 48 hours later. The other two groups served as controls and consisted of tumor alone or tumor subjected to only the morpholino. Tumors were followed post-radiation for 30 days, measuring their volume every 6 days (FIG. 19A). Results are presented as the mean±SD of 12 mice in each treatment group and are representative of 3 independent studies. […] Cell (mitochondrial) viability was measured 48 hours post radiation using the MTT assay.
FIG. 20. […] Tumor growth was assessed as above. […]
In other experiments, C3H mice were injected in the right hindlimb with either 1.5×10^5 SCC VII cells, and tumors were allowed to establish for 1 week. […] The mice were observed and tumor size determined two to three times a week by the same individual until lesion size necessitated animal euthanasia.

[2] = system: C57BL/6 wild type mice; assay: Hindlimb irradiation (25 Gy), skin reaction / tissue necrosis grading and histology; conditions: for skin reaction / tissue damage of irradiated hindlimb: 10 μM in 750 μl PBS local-regional
Protocol: FIG. 16. CD47 suppression using an antisense morpholino minimizes tissue damage from radiation injury. Age and sex matched C57BL16 wild type mice underwent a one-time treatment of the right hindlimb with either a murine specific CD47 morpholino oligonucleotide (10 μM in 750 μl PBS) or 750 μl of PBS injected local-regionally to the muscle and soft tissues. […] At the end of 8 weeks, there was a considerable amount of alopecia, dry desquamation and early signs of fibrotic contractures within the irradiated hind limbs of mice receiving only PBS. […] The tissue necrosis grading scores for 8 animals are presented as mean±SD (FIG. 16B) and show a similar trend throughout the 8-week observation period.
Skin reaction: Skin reaction following hind limb irradiation was quantified every week following treatment for 8 weeks using a previously described grading system (Flanders et al., Am J Pathol 163:2247-2257, 2003). The grading system consisted of 5 categories: normal, hair loss, erythema, dry desquamation and moist desquamation/ulceration.
Irradiation of mice: Age and sex matched wild type mice underwent local irradiation to the right hindlimb as described in Example 1. Forty-eight hours prior to irradiation, animals received the CD47 morpholino (SEQ ID NO: 4), a control morpholino (SEQ ID NO: 5) (both at 10 μM in […] PBS via intramuscular injection), vehicle, or no treatment to the hind limb. Under 1% isoflurane inhalation anesthesia, the animals were placed in customized Lucite jigs that allow for immobilization and selective irradiation of the right hindlimb. A single radiation dose of 25 Gy was delivered by a Therapax® DXT300 X-ray irradiator (Pantak, Inc., East Haven, Conn.) using 2.0-mm A1 filtration (300 kVp) at a dose rate of 2.53 Gy/min. Care was taken to avoid irradiation of other body parts by using lead shields specifically designed as a part of the jigs. After irradiation, the animals were placed in cages as indicated above and observed weekly. Skin reaction after hind limb irradiation was quantified every week after treatment for 8 weeks using a previously described grading system (Flanders et al., Am J. Pathol 163:2247-2257, 2003). Briefly, tissue necrosis grading system consists of 5 categories: normal, hair loss, erythema, dry desquamation, and moist desquamation/ulceration.
Age and sex matched C57BL16 wild type mice underwent a one-time treatment of the right hindlimb with the CD47 antisense morpholino oligonucleotide (10 μM in 750 μl PBS), a mismatched control morpholino, or vehicle (PBS) injected local-regionally to the muscle and soft tissues.

[3] = system: B16F10 melanoma tumors; assay: Syngeneic B16F10 melanoma tumor growth after irradiation; conditions: B16F10 in C57BL/6 mice
Protocol: FIG. 19. CD47 suppression enhances re-growth delay in irradiated syngeneic B16 melanoma and squamous cell carcinoma tumors but increases radioresistance of B16 cells in vitro. C57BL/6 mice were injected with 1×10^6 B16 mouse melanoma cells into their right hindlimbs. Five days later, the mice were randomized into 4 groups (12 mice in each group) where they either received injections of CD47 morpholino (10 μM) in sterile PBS, PBS, or no injection. The two groups receiving injections were then subjected to radiation (10 Gy) to the effected hindlimb 48 hours later. The other two groups served as controls and consisted of tumor alone or tumor subjected to only the morpholino. Tumors were followed post-radiation for 30 days, measuring their volume every 6 days (FIG. 19A). Results are presented as the mean±SD of 12 mice in each treatment group and are representative of 3 independent studies. These same experimental treatment conditions were tested using another syngeneic tumor cell line (SCC VII) in C3H mice and followed for 15 days where similar results were found after injecting 1.5×10^5 cells (FIG. 19B). Results are presented as the mean±SD of 10 mice (C3II) in each treatment group and are representative of 3 independent studies. B16 mouse melanoma cells were plated on 96-well plates in standard growth medium. Cells were treated with peptide 7N3 or CD47 morpholino and received a radiation dose of 10 Gy (FIG. 19C; *p<0.05, #p<0.01). Cell (mitochondrial) viability was measured 48 hours post radiation using the MTT assay.
Tumor Establishment and Irradiation. C57 B16 mice were injected in the right hindlimb with 1×10^6 B16F10 melanoma cells, and tumors were allowed to establish for 1 week. After tumor incorporation, the hind limbs were treated with either the CD47 morpholino or sterile phosphate buffered saline (PBS). Forty-eight hours later, all mice were subjected to right hind limb irradiation (10 Gy). The mice were observed and tumor size determined twice a week by the same individual until lesion size necessitated animal euthanasia. […]

CGTCACAGGCAGGACCCACTGCCCA (all phosphorodiamidate morpholino (PMO)) [CD47 morpholino, CD47 targeting morpholino oligonucleotide]
tumor growth delay, intraperitoneal versus local administration [1]: as effective as local delivery; also recorded: equivalent delay in tumor growth | skin reaction / tissue damage of irradiated hindlimb ([2]; 48 hours before 25 Gy, 8 weeks): little to no alopecia, ulceration, or desquamation | skin reaction / tissue damage of irradiated hindlimb ([2]; 48 hours before 25 Gy, 8 weeks, listed as CD47 targeting morpholino): minimal to no alopecia, ulceration, and desquamation | H&E of treated hindlimb skeletal muscle ([2]; 25 Gy, results not shown): muscle cell survival and hypertrophy | hindlimb contracture due to fibrosis ([2]; 48 hours before 25 Gy, 8 weeks): minimal contracture due to fibrosis | tumor ablation / re-growth delay with irradiation ([3]; morpholino 48 hours before 10 Gy): dramatically increased tumor ablation | tumor growth without irradiation ([3]; morpholino alone): only slightly delayed tumor growth | normal tissue injury in tumor-bearing irradiated limbs ([3]; morpholino then 10 Gy): minimal alopecia and no other morphologic or histologic evidence of tissue injury
